{
  "source": "patent US6689803B2",
  "about": "“Compositions and methods for treating surgical adhesions” (Angiotech Pharmaceuticals, Inc., priority 1996, dated 2004)",
  "key": {"LNCaP cells": {"tested_on": "LNCaP cells", "assay": "LNCaP cell growth (crystal violet)", "assay_type": "cell-based, human", "conditions": "Homo sapiens, LNCaP, 120 h; 5 days; read-out: EC50", "protocol": "LNCaP cells were seeded at concentrations of 2×10^3 and 1×10^3 cells/well respectively in 96 well plates. […] After incubation, the cells were fixed with 1% glutaraldehyde solution, and stained for 5 minutes with 0.5% crystal violet. The dye was successively eluted with 100 μl of buffer solution and the absorbance was read on a Titertek Multiskan microplate reader using a wavelength of 492 nm Absorbance. Cell growth was expressed as a percentage relative to control wells in the absence of the compound (set at 100%)."}, "[1]": {"assay": "Stability of paclitaxel in cyclodextrin solutions", "assay_type": "physicochemical", "source_text": "The solutions containing 20% HPβCD or HPγCD had pH values of 3.9 and 5.2, respectively."}, "[2]": {"tested_on": "fibrous astrocytes (GFAP)", "assay": "GFAP and astrocytes in brain, transgenic mouse model of demyelinating disease", "assay_type": "in vivo", "conditions": "brain sections, transgenic mice", "description": "Three days following the tenth injection, the experimental study was terminated and the brain tissues processed for histological analysis. For light microscopy, tissues were fixed in formalin and embedded in paraffin. Sections were stained with anti-GFAP antibody (DACO), washed and then reacted with secondary antibody conjugated with HPP. The sections were stained for HPP and counter-stained with haematoxylin."}, "MS symptoms": {"tested_on": "MS symptoms", "assay": "Demyelinating DM20 (ND4) transgenic mouse model of MS", "assay_type": "in vivo", "set-up": "key to Seizures / Shaking / Hind Limb Paralysis / Head Tremors: 1+: slight but definite signs; 2+: increase in severity; 3+: signs worsened with limited movement; 4+: very severe signs with loss of motor control (moribund)", "conditions": "micellar paclitaxel 2.5 mg/kg s.c. 3 times per week, 7 injections", "source_text": "These transgenic mice contain 70 copies of the transgene DM20, a myelin proteolipid. Clinically, the animals appear normal up to 3 months of age. After 3 months, evidence of neurological pathology, such as seizures, shaking, hind limb mobility, unsteadiness of gait, limp tail, wobbly gait and reduction in the degree of activity, appear and progressively increase in severity until the animals die between 6 and 8 months of age.\nFor both of these sets of experiments, dosing was initiated at the clinical onset of disease (approximately 3 to 4 months of age).\nAnimals were injected with the first dose once the initial signs of MS had reached a score of 1+ for the symptom categories described. The clinical scores and body weight were determined on each injection day and continued three times a week until the end of the study period (6 months of age). Scoring was based on a 1+ to 4+ system, whereby 1+=slight but definite signs, 2+=increase in severity, 3+=signs worsened with limited movement and 4+=very severe signs with loss of motor control (moribund).\nThree additional transgenic mice were used as controls and received an equivalent dose of PBS. […] Furthermore, four normal mice were used as controls and administered equivalent volumes of PBS."}, "EOMA cells": {"tested_on": "EOMA cells", "assay": "Endothelial cell apoptosis (DAPI staining)", "assay_type": "cell-based", "conditions": "24 hours", "protocol": "The cells were fixed with 3.7% formaldehyde in phosphate buffered saline for 20 minutes, stained with DAPI (4′-6-diaminido-2-phenylindole), 1 ug/ml, and examined with a 40×objective under epifluorescent optics. Apoptotic cells were evaluated by scoring cells for fragmented nuclei and condensed chromatin."}, "[3]": {"tested_on": "AP-1 transcriptional activity", "assay": "IL-1 stimulated AP-1 driven CAT reporter gene in chondrocytes", "assay_type": "cell-based", "conditions": "10^−7 to 10^−5 M", "description": "The data noted with an asterisk (*) have significance compared with IL-1-induced CAT activity according to a t-test, P<0.05. The results shown are representative of three independent experiments."}, "[4]": {"assay": "Solubility / complexation of paclitaxel with cyclodextrins", "assay_type": "physicochemical", "protocol": "The mobile phase was composed of a mixture of acetonitrile, methanol and water (58:5:37) at a flow rate of 1.0 ml/minute."}, "neutrophils": {"tested_on": "neutrophils", "assay": "Superoxide anion generation by neutrophils", "assay_type": "cell-based, human", "conditions": "28 μM", "protocol": "All experiments that studied neutrophil responses to crystals or zymosan in the presence of paclitaxel were performed using plasma opsonized CPPD or zymosan. Opsonization of crystals or zymosan was done with 50% heparinized plasma at a concentration of 75 mg of CPPD or 12 mg of zymosan per ml of 50% plasma Crystals or zymosan were incubated with plasma for 30 minutes at 37° C. and then washed in excess HBSS.\nNeutrophil viability and purity was always greater than 90%.\nSuperoxide anion concentrations were measured using the superoxide dismutase inhibitable reduction of cytochrome C assay. Briefly, 25 mg of crystals or 0.5 mg of zymosan was placed in a 1.5 ml capped Eppendorf tube and warmed to 37° C. 0.5 ml of cells at 37° C. were added together with ferricytochrome C (final concentration 1.2 mg/ml) and the cells were activated by shaking the capped tubes. At appropriate times tubes were centrifuged at 10,000 g for 10 seconds and the supernatant collected for assay be measuring the absorbance of 550 nm. Control tubes were set up under the same conditions with the inclusion of superoxide dismutase at 600 units per ml."}, "subcutaneous tumors": {"tested_on": "subcutaneous tumors", "assay": "Subcutaneous tumors in mice treated with paste", "assay_type": "in vivo", "conditions": "paclitaxel/gelatin/PCL paste"}, "synovial fibroblasts": {"tested_on": "synovial fibroblasts", "assay": "Synoviocyte proliferation (trypan blue dye exclusion)", "conditions": "24 hours"}, "[5]": {"conditions": "transgenic mice, 6 months of age"}},
  "data": [
    {"smiles": "CC(=O)O[C@H]1C(=O)[C@@]2(C)[C@H]([C@H](OC(=O)c3ccccc3)[C@]3(O)C[C@H](OC(=O)[C@H](O)[C@@H](NC(=O)c4ccccc4)c4ccccc4)C(C)=C1C3(C)C)[C@]1(OC(C)=O)CO[C@@H]1C[C@@H]2O", "note": "[paclitaxel]", "values": [
      {"measurement": "EC50", "setting": "LNCaP cells", "value": "~0.09", "unit": "nM"},
      {"measurement": "degradation rate constant k", "setting": "[1]; 1 μg/ml paclitaxel, 1% HPβ-CD, 55° C.", "value": 0.00338, "unit": "h⁻¹"},
      {"measurement": "degradation rate constant", "setting": "[1]; 10% HPβ-CD (FIG. 42: 20 μg/ml, 37° C., pH 3.7)", "value": 0.00178, "unit": "h⁻¹"},
      {"measurement": "degradation rate constant", "setting": "[1]; 10% HPγ-CD (FIG. 42: 20 μg/ml, 37° C., pH 4.9)", "value": 0.00096, "unit": "h⁻¹"},
      {"measurement": "number of fibrous astrocytes", "setting": "[2]", "value": "decreased significantly"},
      {"measurement": "Head Tremors", "setting": "MS symptoms; normal mice", "value": 0},
      {"measurement": "Hind Limb Paralysis", "setting": "MS symptoms; normal mice", "value": 0},
      {"measurement": "Seizures", "setting": "MS symptoms; normal mice", "value": 0},
      {"measurement": "Shaking", "setting": "MS symptoms; normal mice", "value": 0},
      {"measurement": "Weight Change", "setting": "MS symptoms; normal mice", "value": "−0-5%"},
      {"measurement": "Weight Change", "setting": "MS symptoms; transgenic mice", "value": "+5-10%"},
      {"measurement": "Head Tremors", "setting": "MS symptoms; [5]", "value": "1+"},
      {"measurement": "Hind Limb Paralysis", "setting": "MS symptoms; [5]", "value": "1+"},
      {"measurement": "Seizures", "setting": "MS symptoms; [5]", "value": "1+"},
      {"measurement": "Shaking", "setting": "MS symptoms; [5]", "value": "1+"},
      {"measurement": "concentrations inducing endothelial cell apoptosis", "setting": "EOMA cells", "value": "greater than 10^−8 M"},
      {"measurement": "IL-1 induced AP-1 reporter gene CAT activity", "setting": "[3]", "value": "reduced in chondrocytes by paclitaxel in a concentration dependent manner"},
      {"measurement": "solubility", "setting": "[4]; 50% HPβ-CD in water, aqueous with cosolvent or surfactant or cyclodextrin, thermodynamic from solid, 50% solution of HPβ-CD in water, 37° C.", "value": 3200, "unit": "µg/mL"},
      {"measurement": "increase over the solubility of paclitaxel in water", "setting": "[4]; 50% solution of HPβ-CD in water, 37° C.", "value": "~2000", "unit": "fold"},
      {"measurement": "apparent stability constant", "setting": "[4]; HPβ-CD in the presence of 50% ethanol", "value": 26.57, "unit": "M⁻¹"},
      {"measurement": "stability constant, first order complex", "setting": "[4]; HPβ-CD, 37° C.", "value": 7.2, "unit": "M⁻¹"},
      {"measurement": "stability constant lower than in the absence of ethanol", "setting": "[4]; HPβ-CD, 50% ethanol", "value": "about 300 times"},
      {"measurement": "stability constant, first order complex", "setting": "[4]; HPγ-CD, 37° C.", "value": 5.8, "unit": "M⁻¹"},
      {"measurement": "stability constant, first order complex", "setting": "[4]; γ-CD, 37° C.", "value": 3.1, "unit": "M⁻¹"},
      {"measurement": "inhibition of superoxide anion production", "setting": "neutrophils; opsonized zymosan", "value": "less dramatic than the inhibition of CPPD activation but was significant at all times"},
      {"measurement": "superoxide anion production", "setting": "neutrophils; plasma opsonized CPPD crystals", "value": "decrease in the amount of superoxide generated at all times"},
      {"measurement": "tumor mass", "setting": "subcutaneous tumors", "value": "significantly reduced the tumor mass"},
      {"measurement": "toxicity to synovial fibroblasts", "setting": "synovial fibroblasts; 10^−6 M and 10^−5 M", "value": "toxic"},
      {"measurement": "inhibiting proliferation of the synoviocytes at concentrations as low as", "setting": "synovial fibroblasts", "value": "10^−7 M"}
    ]}
  ]
}
